Like-named read-outs stand apart in the source and are kept apart here. Where no end group is shown, it is not given here.
Columns and labels:
HLA-A0201 = target: T1, HLA-A0201 (Homo sapiens, UniProt P04439, D140Y/D185E/D98H/E176V/E277Q/G131W/G231S/I119V/I121R/I166T/I218V/L300P/L318F/N151K/N90K/P208A/P217A/Q86G/Q94H/R138H/R169H/T345S); assay: cell-based; format: binding; conditions: for inhibition at 5 µM / inhibition at 15 µM / 5-μM inhibition (%) / 15-μM inhibition (%): 24 h; for inhibition at 5 µM: read-out: 5-μM inhibition (%); for inhibition at 15 µM: read-out: 15-μM inhibition (%)
T1 construct: expressed in transfected cells; host or cells: HMy2.CIR

HLA-A0203 = target: T2, HLA-A0203 (Homo sapiens, UniProt P04439, A173T/D140Y/D185E/D98H/E277Q/G131W/G231S/I119V/I121R/I166T/I218V/L180W/L300P/L318F/N151K/N90K/P208A/P217A/Q86G/Q94H/R138H/R169H/T345S); assay: cell-based; format: binding; conditions: for inhibition at 5 µM: read-out: 5-μM inhibition (%); for inhibition at 15 µM: read-out: 15-μM inhibition (%)
T2 construct: expressed in transfected cells; host or cells: HMy2.CIR

HLA-A1101 = target: T3, HLA-A1101 (Homo sapiens, UniProt P04439, A114D/D185E/E176A/F33Y/L180Q/S129P/T187R); assay: cell-based; format: binding; conditions: for 5-μM inhibition (%) / inhibition at 5 µM: peptide 5 μM vs FITC-labeled reference peptide 300 nM; for 5-μM inhibition (%) / 15-μM inhibition (%) / inhibition at 5 µM / inhibition at 15 µM: 24 h, 4°C, flow cytometry; for 15-μM inhibition (%) / inhibition at 15 µM: peptide 15 μM vs FITC-labeled reference peptide 300 nM; for inhibition at 5 µM: read-out: 5-μM inhibition (%); for inhibition at 15 µM: read-out: 15-μM inhibition (%)
T3 construct: expressed in transfected cells; host or cells: HMy2.CIR

HLA-A3303 = HLA-A3303 (Homo sapiens, UniProt P04439, A270S/D185E/E176V/E277Q/E87N/F33T/G231S/H175R/I121M/I218V/I322F/K168Q/L300P/L318F/M331R/P217A/Q86R/Q94H/R138Q/T323A/T345S/T97I/V358M); assay: Peptide competitive binding assay, HMy2.CIR cells expressing A3303; conditions: for inhibition at 5 µM: peptide 5 μM vs FITC-labeled reference peptide 300 nM; for inhibition at 5 µM / inhibition at 15 µM: 24 h, 4°C, flow cytometry; for inhibition at 15 µM: peptide 15 μM vs FITC-labeled reference peptide 300 nM; for IC50: read-out: Affinity
HLA-A2402 = HLA-A2402 (Homo sapiens, UniProt P04439, D101N/D140Y/D185E/E176V/E190D/F33S/G103R/G107R/I119L/I121M/I306V/K335N/L105A/L180Q/L300P/N151K/N90K/Q86E/Q94H/R106L/R138H/R89G/T104I/T345S/V100E/W191G/Y123F); assay: cell-based; format: binding; conditions: for inhibition at 5 µM / inhibition at 15 µM / 5-μM inhibition (%) / 15-μM inhibition (%): A2402, 24 h, 4°C, flow cytometry; for inhibition at 5 µM / 5-μM inhibition (%): peptide 5 μM vs FITC-labeled reference peptide 300 nM; for inhibition at 15 µM / 15-μM inhibition (%): peptide 15 μM vs FITC-labeled reference peptide 300 nM
[1] = A0201, peptide 5 μM vs FITC-labeled reference peptide 300 nM, 4°C, flow cytometry
[2] = A0201, peptide 15 μM vs FITC-labeled reference peptide 300 nM, 4°C, flow cytometry
[3] = A0203, peptide 5 μM vs FITC-labeled reference peptide 300 nM, 24 h, 4°C, flow cytometry
[4] = A0203, peptide 15 μM vs FITC-labeled reference peptide 300 nM, 24 h, 4°C, flow cytometry

Question: How did the inhibition at 5 µM (HLA-A0201) turn out when `CC[C@H](C)[C@H](NC(=O)[C@H](CO)NC(=O)[C@@H](NC(=O)[C@@H]1CCCN1C(=O)[C@H](CO)NC(=O)[C@H](Cc1ccc(O)cc1)NC(=O)[C@H](CCSC)NC(=O)[C@@H](N)CCCNC(=N)N)C(C)C)C(=O)N[C@@H](CC(C)C)C(=O)O` [Peptide P9] was run?
Answer: 0%

Question: And the inhibition at 15 µM (HLA-A0201)?
Answer: 4.54%

Question: And the IC50 (HLA-A0203)?
Answer: 5 to 15 µM

Question: And the inhibition at 5 µM (HLA-A0203; 24 h)?
Answer: 0%

Question: What about the inhibition at 15 µM (HLA-A0203; 24 h) of the same molecule?
Answer: 50.1%

Question: ALFYKLDIV [Peptide P2] was tested. Which IC50 (HLA-A0201) did it give?
Answer: 5 to 15 µM

Question: And the inhibition at 5 µM (HLA-A0201; [1])?
Answer: 23.2%

Question: And the inhibition at 15 µM (HLA-A0201; [2])?
Answer: 70.5%

Question: And the IC50 (HLA-A0203)?
Answer: 5 to 15 µM

Question: What about the inhibition at 5 µM (HLA-A0203; [3]) of the same molecule?
Answer: 26.1%

Question: What about the inhibition at 15 µM (HLA-A0203; [4]) of the same molecule?
Answer: 61.9%

Question: Which “5-μM inhibition (%)” value (HLA-A0201; [1]) does the source give for ALQDSGSEV [Peptide P18] here?
Answer: 15.88%

Question: And the “15-μM inhibition (%)” value (HLA-A0201; [2])?
Answer: 41.90%

Question: Which “5-μM inhibition (%)” value (HLA-A0201; [1]) does the source give for ALQTGTEEL [Peptide P8] here?
Answer: 0.00%

Question: What about the “15-μM inhibition (%)” value (HLA-A0201; [2]) of the same molecule?
Answer: 14.68%

Question: And the “5-μM inhibition (%)” value (HLA-A0203; [3])?
Answer: 0.00%

Question: What about the “15-μM inhibition (%)” value (HLA-A0203; [4]) of the same molecule?
Answer: 5.56%

Question: Which IC50 (HLA-A0201) does the source give for ALTDIVPLT [Peptide P12] here?
Answer: 5 to 15 µM

Question: What about the inhibition at 5 µM (HLA-A0201; [1]) of the same molecule?
Answer: 28%

Question: What about the inhibition at 15 µM (HLA-A0201; [2]) of the same molecule?
Answer: 72.2%

Question: Which “5-μM inhibition (%)” value (HLA-A1101; A1101) does the source give for ASCDQCQLK [Peptide P38] here?
Answer: 12.62%

Question: And the “15-μM inhibition (%)” value (HLA-A1101; A1101)?
Answer: 33.56%

Question: How did the IC50 (HLA-A1101) turn out when ATESIVIWGK [Peptide P36] was run?
Answer: < 5 µM

Question: What about the inhibition at 5 µM (HLA-A1101; A1101) of the same molecule?
Answer: 88.3%

Question: And the inhibition at 15 µM (HLA-A1101; A1101)?
Answer: 90.7%

Question: How did the IC50 (HLA-A1101; A1101, class from inhibition at 5 and 15 μM of FITC-labeled reference peptide binding, read-out: Affinity) turn out when CTPAGYAILK [Peptide P23] was run?
Answer: < 5 µM

Question: What about the inhibition at 5 µM (HLA-A1101; A1101) of the same molecule?
Answer: 70.1%

Question: What about the inhibition at 15 µM (HLA-A1101; A1101) of the same molecule?
Answer: 88.1%

Question: Which inhibition at 5 µM (HLA-A3303; A3303) does the source give for DAWEKIRLR [Peptide P104] here?
Answer: 71.8%

Question: And the inhibition at 15 µM (HLA-A3303; A3303)?
Answer: 82.5%

Question: What about the IC50 (HLA-A3303) of the same molecule?
Answer: < 5 µM

Question: Which IC50 (HLA-A1101) does the source give for ELYPLTSLK [Peptide P29] here?
Answer: < 5 µM

Question: And the inhibition at 5 µM (HLA-A1101; A1101)?
Answer: 51.1%

Question: And the inhibition at 15 µM (HLA-A1101; A1101)?
Answer: 79.9%

Question: How did the IC50 (HLA-A2402) turn out when FYCNTSGLF [Peptide P46] was run?
Answer: < 5 µM

Question: What about the inhibition at 5 µM (HLA-A2402) of the same molecule?
Answer: 95%

Question: And the inhibition at 15 µM (HLA-A2402)?
Answer: 99.5%

Question: Which IC50 (HLA-A2402) does the source give for FYCNTTKLF [Peptide P49] here?
Answer: 5 to 15 µM

Question: And the inhibition at 5 µM (HLA-A2402)?
Answer: 49.2%

Question: And the inhibition at 15 µM (HLA-A2402)?
Answer: 60.5%

Question: Which results are given for GMLMISSAV [Peptide P70]?
Answer: IC50 (HLA-A0203; A0203, class from inhibition at 5 and 15 μM of FITC-labeled reference peptide binding, read-out: Affinity): < 5 µM; inhibition at 5 µM (HLA-A0203; [3]): 71.4%; inhibition at 15 µM (HLA-A0203; [4]): 85.5%

Question: Which results are given for GSNFTSAAVK [Peptide P37]?
Answer: IC50 (HLA-A1101): < 5 µM; inhibition at 5 µM (HLA-A1101; A1101): 74%; inhibition at 15 µM (HLA-A1101; A1101): 91%

Question: How did the IC50 (HLA-A1101) turn out when GTYTPNGTK [Peptide P22] was run?
Answer: 5 to 15 µM

Question: And the inhibition at 5 µM (HLA-A1101; A1101)?
Answer: 43.2%

Question: And the inhibition at 15 µM (HLA-A1101; A1101)?
Answer: 87.4%

Question: Which “5-μM inhibition (%)” value (HLA-A2402) does the source give for HYMLKHLVW [Peptide P55] here?
Answer: 13.48%

Question: And the “15-μM inhibition (%)” value (HLA-A2402)?
Answer: 31.20%

Question: Which inhibition at 5 µM (HLA-A0201; [1]) does the source give for IIFAVLSIV [Peptide P5] here?
Answer: 20.6%

Question: What about the inhibition at 15 µM (HLA-A0201; [2]) of the same molecule?
Answer: 42.8%

Question: What about the IC50 (HLA-A0203) of the same molecule?
Answer: 5 to 15 µM

Question: And the inhibition at 5 µM (HLA-A0203; [3])?
Answer: 31%

Question: What about the inhibition at 15 µM (HLA-A0203; [4]) of the same molecule?
Answer: 64.6%

Question: What does the source list for ITNWLWYIK [Peptide P20]?
Answer: IC50 (HLA-A1101): < 5 µM; inhibition at 5 µM (HLA-A1101; A1101): 69.8%; inhibition at 15 µM (HLA-A1101; A1101): 71%

Question: IVIWGKTPK [Peptide P43] was tested. Which IC50 (HLA-A1101) did it give?
Answer: < 5 µM

Question: And the inhibition at 5 µM (HLA-A1101; A1101)?
Answer: 80.2%

Question: And the inhibition at 15 µM (HLA-A1101; A1101)?
Answer: 90.1%

Question: For IVKCFNCGK [Peptide P32], which “5-μM inhibition (%)” value (HLA-A1101; A1101) is on record?
Answer: 20.16%

Question: What about the “15-μM inhibition (%)” value (HLA-A1101; A1101) of the same molecule?
Answer: 36.81%

Question: For IWGKTPKFRL [Peptide P62], which “5-μM inhibition (%)” value (HLA-A2402) is on record?
Answer: 21.17%

Question: What about the “15-μM inhibition (%)” value (HLA-A2402) of the same molecule?
Answer: 37.66%

Question: Which results are given for IYKRWIILGL [Peptide P56]?
Answer: 5-μM inhibition (%) (HLA-A2402): 20.61%; 15-μM inhibition (%) (HLA-A2402): 25.51%

Question: Which “5-μM inhibition (%)” value (HLA-A0201; [1]) does the source give for KTIIVHLNK [Peptide P19] here?
Answer: 0.00%

Question: What about the “15-μM inhibition (%)” value (HLA-A0201; [2]) of the same molecule?
Answer: 4.54%

Question: For KYRLKHLVW [Peptide P54], which IC50 (HLA-A2402) is on record?
Answer: 5 to 15 µM

Question: And the inhibition at 5 µM (HLA-A2402)?
Answer: 35.8%

Question: What about the inhibition at 15 µM (HLA-A2402) of the same molecule?
Answer: 79.5%

Question: With MAVFIHNFKR [Peptide P109] as the molecule, how does the inhibition at 5 µM (HLA-A3303; A3303) read?
Answer: 55.1%

Question: And the inhibition at 15 µM (HLA-A3303; A3303)?
Answer: 56.1%

Question: What about the IC50 (HLA-A3303) of the same molecule?
Answer: < 5 µM

Question: Which IC50 (HLA-A3303; A3303, class from inhibition at 5 and 15 μM of FITC-labeled reference peptide binding) does the source give for MYAPPISGR [Peptide P106] here?
Answer: < 5 µM

Question: What about the inhibition at 5 µM (HLA-A3303; A3303) of the same molecule?
Answer: 72.8%

Question: What about the inhibition at 15 µM (HLA-A3303; A3303) of the same molecule?
Answer: 81.5%

Question: With MYSPTSILDI [Peptide P52] as the molecule, how does the IC50 (HLA-A2402) read?
Answer: 5 to 15 µM

Question: And the inhibition at 5 µM (HLA-A2402)?
Answer: 21.6%

Question: And the inhibition at 15 µM (HLA-A2402)?
Answer: 79.4%

Reference: article PMC11850406, “Large-scale screening of HIV-1 T-cell epitopes restricted by 12 prevalent HLA-A allotypes in Northeast Asia and universal detection of HIV-1-specific CD8^+ T cells” (Frontiers in Microbiology, 2025)
